From patent US9834520B2, “Heterocyclic compound” (TAKEDA PHARMACEUTICAL COMPANY LIMITED, priority 2013, dated 2017)

What was measured:
RORγt [1] = target: T1, RORγt (Homo sapiens, UniProt P51449); test: Jurkat reporter test (IL-17 ROR response element luciferase); type: cell-based; set-up: expressed in transfected cells; host or cells: Jurkat cells; details: test compound 3 μM, Jurkat cells; for inhibition at 3 µM: Jurkat, read-out: luminescence level inhibitory rate (%)
T1 sequence (P51449 1-497 isoform P51449-2): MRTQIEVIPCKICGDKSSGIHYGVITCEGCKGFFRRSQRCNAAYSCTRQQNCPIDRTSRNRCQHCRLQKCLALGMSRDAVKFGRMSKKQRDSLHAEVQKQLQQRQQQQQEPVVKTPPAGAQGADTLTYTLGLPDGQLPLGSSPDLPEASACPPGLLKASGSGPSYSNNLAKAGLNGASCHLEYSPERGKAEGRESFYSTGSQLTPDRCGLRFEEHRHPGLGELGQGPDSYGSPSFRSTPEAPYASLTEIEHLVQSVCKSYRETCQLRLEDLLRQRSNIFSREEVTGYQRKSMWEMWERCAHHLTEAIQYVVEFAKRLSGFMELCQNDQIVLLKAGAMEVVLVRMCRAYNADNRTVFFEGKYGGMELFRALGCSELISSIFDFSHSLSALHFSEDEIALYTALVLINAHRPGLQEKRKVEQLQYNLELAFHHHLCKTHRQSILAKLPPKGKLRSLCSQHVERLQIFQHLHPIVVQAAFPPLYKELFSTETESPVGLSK
Description: The Jurkat cells used for the reporter test were cultured in a culture medium (RPMI (Invitrogen), 10% FCS (AusGeneX), 100 U/mL penicillin, 100 μg/mL streptomycin). On the day of the test, 4×10^7 cells were recovered by a centrifugal operation (1000 rpm, 5 min.) and suspended in PBS (phosphate buffered saline) (Invitrogen). Thereafter, the cells were recovered again by a centrifugal operation, and suspended in 2 mL of R buffer (NEON transfection kit, Invitrogen). […] Gene transfer was performed by Electroporation apparatus (NEON, Invitrogen) under the conditions of pulse voltage 1350 V, interval 10 milliseconds, number of times 3. The cells after gene transfer were suspended in 40 mL of a reaction medium (RPMI, 10% Lipid reduced FCS (HyClone), 10 mM HEPES (pH 7.5), 100 U/mL penicillin, 100 μg/mL streptomycin, 5 μM lovastatin), and plated in a 96 well plate by 90 μL each. A test compound diluted with the reaction medium was added by 10 μL each, and the cells were cultured overnight in an incubator. Bright-Glo (Promega) was added by 100 μL each, and the mixture was stirred at room temperature for 10 min, and the luminescence level was measured by Envision (PerkinElmer).

RORγt [2] = target: T1, RORγt; test: Cofactor recruitment test (Alpha Screen, biotinylated SRC-1 peptide); type: biochemical; details: test compound 1 μM; for inhibition at 1 µM: read-out: signal value inhibitory rate (%)
Description: Cofactor Recruitment Test
Cofactor recruitment test was performed by Alpha Screen (Histidine Detection Kit, PerkinElmer) method. First, a test compound diluted with an assay buffer (50 mM Tris-HCl (pH 7.5), 50 mM KCl, 1 mM DTT, 0.1% BSA) was added to a 384 well plate by 5 μL each. […] The mixture was stood in a dark place for 1 hr, and the signal value was measured by Envision (PerkinElmer).

RORγt [3] = target: T1, RORγt; test: RORγt binding test (TR-FRET, fluorescent-labeled cholesterol); details: binding inhibitory rate of fluorescent-labeled cholesterol to RORγt at test compound 1 μM
Description: The binding activity of the test compound to RORγt was measured by a time resolved fluorescence resonance energy transfer method (TR-FRET) utilizing histidine-tagged RORγt, fluorescent-labeled cholesterol (BODIPY-cholesterol, AVIVA) and terbium-labeled anti-histidine tag antibody (Invitrogen). First, a test compound diluted with an assay buffer (20 mM Tris-HCl (pH 7.5), 100 mM NaCl, 1 mM DTT, 0.1% BSA) was added to a 384 well plate by 3 μL each. Then, RORγt diluted with an assay buffer to 240 nM was added by 3 μL each, after which fluorescent-labeled cholesterol diluted with the assay buffer to 12 μM was added by 3 μL each, and the mixture was stood at room temperature for 20 min. Thereafter, a terbium-labeled anti-histidine tag antibody diluted with the assay buffer to 8 nM was added by 3 μL each. The mixture was stood at room temperature for 20 min, and fluorescence intensity (excitation wavelength 320 nm, fluorescence wavelength 520 nm, delay time 100 microseconds) was measured by Envision (PerkinElmer).

SMILES	inhibition at 3 µM (RORγt [1]) [%]	inhibition at 1 µM (RORγt [2]) [%]	inhibition at 1 µM (RORγt [3]) [%]	luminescence level inhibitory rate (%) (RORγt [1]; 3 µM)	signal value inhibitory rate (%) (RORγt [2]; 1 µM)	binding inhibitory rate (%) (RORγt [3]; 1 µM)
CCN1Cc2cc(NC(=O)CC(C)CC(=O)Nc3ccc(C#N)c(Cl)c3)ccc2N(CC)C1=O (centres unmarked) [Example 16, N-(3-chloro-4-cyanophenyl)-N′-(1,3-diethyl-2-oxo-1,2,3,4-tetrahydroquinazolin-6-yl)-3-methylpentanediamide]	117	104	92.8			
CCn1c(=O)n(COC)c(=O)c2cc(NC(=O)CC(C)CC(=O)Nc3ccc(C#N)c(Cl)c3)ccc21 (centres unmarked) [Example 19, N-(3-chloro-4-cyanophenyl)-N′-(1-ethyl-3-(methoxymethyl)-2,4-dioxo-1,2,3,4-tetrahydroquinazolin-6-yl)-3-methylpentanediamide]	115	104	99.6			
CCn1c(=O)n(CCOC)c(=O)c2cc(NC(=O)CC(C)CC(=O)Nc3ccc(C#N)c(Cl)c3)ccc21 (centres unmarked) [Example 20, N-(3-chloro-4-cyanophenyl)-N′-(1-ethyl-3-(2-methoxyethyl)-2,4-dioxo-1,2,3,4-tetrahydroquinazolin-6-yl)-3-methylpentanediamide]	116	105	101			
CCn1c(=O)n(CCCOC)c(=O)c2cc(NC(=O)CC(C)CC(=O)Nc3ccc(C#N)c(Cl)c3)ccc21 (centres unmarked) [Example 21, N-(3-chloro-4-cyanophenyl)-N′-(1-ethyl-3-(3-methoxypropyl)-2,4-dioxo-1,2,3,4-tetrahydroquinazolin-6-yl)-3-methylpentanediamide]	118	104	103			
C#CCn1c(=O)c2cc(NC(=O)CC(C)CC(=O)Nc3ccc(C#N)c(Cl)c3)ccc2n(CC)c1=O (centres unmarked) [Example 28, N-(3-chloro-4-cyanophenyl)-N′-(1-ethyl-2,4-dioxo-3-(prop-2-yn-1-yl)-1,2,3,4-tetrahydroquinazolin-6-yl)-3-methylpentanediamide]	115	105	99.3			
CCn1c(=O)n(C[Si](C)(C)C)c(=O)c2cc(NC(=O)CC(C)CC(=O)Nc3ccc(C#N)c(Cl)c3)ccc21 (centres unmarked) [Example 32, N-(3-chloro-4-cyanophenyl)-N′-(1-ethyl-2,4-dioxo-3-((trimethylsilyl)methyl)-1,2,3,4-tetrahydroquinazolin-6-yl)-3-methylpentanediamide]	114	103	98.5			
CCn1c(=O)c2cc(C(=O)NCC(CC(=O)Nc3ccc(C#N)c(Cl)c3)C(C)C)ccc2n(CC)c1=O (centres unmarked) [Example 35, N-(4-((3-chloro-4-cyanophenyl)amino)-2-isopropyl-4-oxobutyl)-1,3-diethyl-2,4-dioxo-1,2,3,4-tetrahydroquinazoline-6-carboxamide]				122.0	105.0	102.0
CCn1c(=O)n(C2CC2)c(=O)c2cc(NC(=O)CC(C)CC(=O)Nc3ccc(C#N)c(Cl)c3)ccc21 (centres unmarked) [Example 60, N-(3-chloro-4-cyanophenyl)-N′-(3-cyclopropyl-1-ethyl-2,4-dioxo-1,2,3,4-tetrahydroquinazolin-6-yl)-3-methylpentanediamide]	122	103	102			
CCn1c(=O)n(CSC)c(=O)c2cc(NC(=O)CC(C)CC(=O)Nc3ccc(C#N)c(Cl)c3)ccc21 (centres unmarked) [Example 65, N-(3-chloro-4-cyanophenyl)-N′-(1-ethyl-3-((methylsulfanyl)methyl)-2,4-dioxo-1,2,3,4-tetrahydroquinazolin-6-yl)-3-methylpentanediamide]	102	102	100			
CCn1c(=O)c2cc(NC(=O)CC(C)CC(=O)Nc3ccc(C#N)c(Cl)c3)ccc2n(CSC)c1=O (centres unmarked) [Example 99, N-(3-chloro-4-cyanophenyl)-N′-(3-ethyl-1-((methylsulfanyl)methyl)-2,4-dioxo-1,2,3,4-tetrahydroquinazolin-6-yl)-3-methylpentanediamide]	102	103	95.6			
CC(O)(CC(=O)Nc1ccc(C#N)c(Cl)c1)CC(=O)Nc1ccc2c(c1)c(=O)n(CC1CC1)c(=O)n2CC1CC1 (centres unmarked) [Example 102, N-(1,3-bis(cyclopropylmethyl)-2,4-dioxo-1,2,3,4-tetrahydroquinazolin-6-yl)-N′-(3-chloro-4-cyanophenyl)-3-hydroxy-3-methylpentanediamide]	104	104	103			
CC(CNC(=O)c1cc2c(=O)n(CC3CC3)c(=O)n(CC3CC3)c2cn1)CC(=O)Nc1ccc(C#N)c(Cl)c1 (centres unmarked) [Example 112, N-(4-((3-chloro-4-cyanophenyl)amino)-2-methyl-4-oxobutyl)-1,3-bis(cyclopropylmethyl)-2,4-dioxo-1,2,3,4-tetrahydropyrido[3,4-d]pyrimidine-6-carboxamide]	97.7	100	96.6			
CC(CC(=O)Nc1ccc(C#N)c(Cl)c1)CC(=O)Nc1cc2c(=O)n(CC3CC3)c(=O)n(CC3CC3)c2cn1 (centres unmarked) [Example 113, N-(1,3-bis(cyclopropylmethyl)-2,4-dioxo-1,2,3,4-tetrahydropyrido[3,4-d]pyrimidin-6-yl)-N′-(3-chloro-4-cyanophenyl)-3-methylpentanediamide]	96.5	102	103			
CCn1c(=O)c2cc(NC(=O)CC(C)CC(=O)Nc3ccc(C#N)c(Cl)c3)ncc2n(CC)c1=O (centres unmarked) [Example 124, N-(3-chloro-4-cyanophenyl)-N′-(1,3-diethyl-2,4-dioxo-1,2,3,4-tetrahydropyrido[3,4-d]pyrimidin-6-yl)-3-methylpentanediamide]	100	101				
CC(C)n1c(=O)n(CC2CC2)c(=O)c2cc(NC(=O)CC(C)(O)CC(=O)Nc3ccc(C#N)c(Cl)c3)ccc21 (centres unmarked) [Example 142, N-(3-chloro-4-cyanophenyl)-N′-(3-(cyclopropylmethyl)-1-isopropyl-2,4-dioxo-1,2,3,4-tetrahydroquinazolin-6-yl)-3-hydroxy-3-methylpentanediamide]	103	103				
CC(CC(=O)Nc1ccc(C#N)c(Cl)c1)CC(=O)Nc1ccc2c(c1)c(=O)n(CC1CC1)c(=O)n2C(C)C (centres unmarked) [Example 144, N-(3-chloro-4-cyanophenyl)-N′-(3-(cyclopropylmethyl)-1-isopropyl-2,4-dioxo-1,2,3,4-tetrahydroquinazolin-6-yl)-3-methylpentanediamide]	103	102				
CC(CC(=O)Nc1ccc(C#N)c(Cl)c1)CC(=O)Nc1ccc2c(c1)C(=O)N(CC1CC1)C(=O)C21CCCC1 (centres unmarked) [Example 145, N-(3-chloro-4-cyanophenyl)-N′-(2′-(cyclopropylmethyl)-1′,3′-dioxo-2′,3′-dihydro-1′H-spiro[cyclopentane-1,4′-isoquinoline]-7′-yl)-3-methylpentanediamide]	103	103				
